# Measurements from patent US9700044B2, “Symmetrical marinopyrrole derivatives as potential antibiotic agents” (priority 2013, dated 2017).
# Like-named read-outs stand apart in the source and are kept apart here.
# Legend:
# [1] = system: Methicillin-susceptible Staphylococcus aureus (MSSA); assay: MIC by agar dilution, MSSA clinical isolates; format: cell-based; details: MSSA
# Description: (§1) A panel of multiple resistance Gram-positive and Gram-negative pathogens listed in Tables 1 and 2 was used to evaluate the antimicrobial activity of marinopyrrole derivatives (Chart 1) with vancomycin as a positive control. Except for those marked with WHO, all pathogens were isolated between 2008 and 2010 in hospitals located in Beijing; Guangzhou; Sichuan, Shandong and Jiangsu Province. Determination of the minimum inhibitory concentration (MIC) was done by the guidelines of the Clinical and Laboratory Standards Institute (Clinical and Laboratory Standards Institute, Performance standards for antimicrobial susceptibility testing, seventeenth informational supplement. 2007, 27, M100-S17). The susceptibility tests of a bacterial strain to a marinopyrrole derivative were performed by an agar dilution method. Briefly, each sterile petri dish contained a final volume of 15 mL comprising 1 mL of a marinopyrrole derivative and 14 mL of Mueller-Hinton broth. The concentrations of a marinopyrrole derivative are 128, 64, 32, 16, 8, 4, 2, 1, 0.5, 0.25, 0.125, 0.06, 0.03, 0.015 and 0.008 μg/mL. The petri dish containing the broth with different concentration of antibiotics was first inoculated with 10^5 CFU/mL (Denley A400, United Kingdom) and the culture was then incubated with shaking at 35-37° C. for 18-20 h. The potency of the compound was determined and expressed as minimum inhibitory concentration (MIC) in μg/mL. The MIC was determined as the lowest concentration of antibiotic that inhibited visible bacterial growth.
# [2] = system: Methicillin-resistant Staphylococcus aureus (MRSA); assay: MIC by agar dilution, MRSA clinical isolates; format: cell-based; details: MRSA
# Description: as §1
# [3] = system: Methicillin-resistant Staphylococcus epidermidis (MRSE); assay: MIC by agar dilution, MRSE clinical isolates; format: cell-based; details: MRSE
# Description: as §1
# [4] = system: Moderately vancomycin-resistant Enterococci faecium with the VanA gene (WHO-3); assay: MIC by agar dilution, VRE (WHO-3); format: cell-based
# Description: as §1
# [5] = system: Oxacillin-resistant Staphylococcus aureus (WHO-25); assay: MIC by agar dilution, ORSA (WHO-25); format: cell-based
# Description: as §1
# [6] = system: Methicillin-resistant Staphylococcus aureus with the mec A gene and PBP2a (WHO-31); assay: MIC by agar dilution, MRSA (WHO-31); format: cell-based
# Description: as §1
# [7] = system: Highly vancomycin-resistant Enterococci faecalis (VRE); assay: MIC by agar dilution, highly resistant VRE; format: cell-based
# Description: as §1
# K. penumonia = assay: MIC by agar dilution, K. penumonia; format: cell-based, K. pneumonia
# Description: as §1
# P. aeruginosa = assay: MIC by agar dilution, P. aeruginosa; format: cell-based
# Description: as §1
# E. coli = assay: MIC by agar dilution, E. coli; format: cell-based
# Description: as §1
# [8] = Staphylococcus aureus, Table 1, 10 isolates
# [9] = Staphylococcus aureus, Table 2, data from 8 isolates
# [10] = Staphylococcus aureus, Table 3, data from 8 isolates
# [11] = Staphylococcus aureus, Table 2, data from 8 isolates, read-out: MIC
# [12] = Staphylococcus epidermidis, Table 2, data from 4 isolates, read-out: MIC
# [13] = Enterococcus, Table 2, WHO-3, read-out: MIC
# [14] = Staphylococcus aureus, Table 2, WHO-25, read-out: MIC
# [15] = Staphylococcus aureus, Table 2, WHO-31, read-out: MIC
smiles,measurement,setting,value
COc1ccccc1C(=O)c1[nH]c(Cl)c(Cl)c1-n1c(C(=O)c2ccccc2OC)cc(Cl)c1Cl [Compound 1c],MIC,"[1]; Table 1, 10 isolates",4 to 16 µg/mL
same,MIC,"[2]; Table 1, 10 isolates",4 to 16 µg/mL
same,MIC,"[3]; Table 1, 3 isolates",2 to 4 µg/mL
same,MIC,"[4]; Table 1, VRE (WHO-3), 1 isolate",2 µg/mL
same,MIC,"[5]; Table 1, ORSA (WHO-25), 1 isolate",8 µg/mL
same,MIC,"[6]; Table 1, MRSA (WHO-31), 1 isolate",4 µg/mL
same,MIC,"[7]; Table 1, VRE (highly vancomycin-resistant E. faecalis), 2 isolates",>128 µg/mL
same,MIC,"K. penumonia; Table 1, K. penumonia, 4 isolates, value over three Gram-negative pathogens",>128 µg/mL
same,MIC,"P. aeruginosa; Table 1, P. aeruginosa, 4 isolates, value over three Gram-negative pathogens",>128 µg/mL
same,MIC,"E. coli; Table 1, E. coli, 4 isolates, value over three Gram-negative pathogens",>128 µg/mL
"CN[C@H](CC(C)C)C(=O)N[C@H]1C(=O)N[C@@H](CC(N)=O)C(=O)N[C@H]2C(=O)N[C@H]3C(=O)N[C@H](C(=O)N[C@H](C(=O)O)c4cc(O)cc(O)c4-c4cc3ccc4O)[C@H](O)c3ccc(c(Cl)c3)Oc3cc2cc(c3O[C@@H]2O[C@H](CO)[C@@H](O)[C@H](O)[C@H]2O[C@H]2C[C@](C)(N)[C@H](O)[C@H](C)O2)Oc2ccc(cc2Cl)[C@H]1O [Van, Vancomycin, reference compound]",MIC,[1]; [8],0.5 to 1 µg/mL
same,MIC,[1]; [9],1 µg/mL
same,MIC,[1]; [10],1 µg/mL
same,MIC,[2]; [8],0.25 to 0.5 µg/mL
same,MIC,[2]; [9],0.5 to 1 µg/mL
same,MIC,[2]; [10],0.5 to 1 µg/mL
same,MIC,"[3]; Staphylococcus epidermidis, Table 1, 3 isolates",0.13 to 0.5 µg/mL
same,MIC,"[3]; Staphylococcus epidermidis, Table 2, data from 4 isolates",0.5 to 1 µg/mL
same,MIC,"[3]; Staphylococcus epidermidis, Table 3, data from 4 isolates",0.5 to 1 µg/mL
same,MIC,[4]; Enterococcus,> 128 µg/mL
same,MIC,"[4]; Enterococcus, VRE",> 64 µg/mL
same,MIC,"[4]; Table 3, WHO-3",>128 µg/mL
same,MIC,"[5]; Staphylococcus aureus, Table 1, ORSA (WHO-25), 1 isolate",2 µg/mL
same,MIC,"[5]; Staphylococcus aureus, Table 3, WHO-25",4 µg/mL
same,MIC,"[5]; Staphylococcus aureus, Table 2, WHO-25",4 µg/mL
same,MIC,[6]; Staphylococcus aureus,1 µg/mL
same,MIC,"[6]; Staphylococcus aureus, MRSA",0.5 µg/mL
same,MIC,"[6]; Table 3, WHO-31",1 µg/mL
same,MIC,[7],> 128 µg/mL
same,MIC,K. penumonia; Klebsiella pneumoniae,> 128 µg/mL
same,MIC,P. aeruginosa; Pseudomonas aeruginosa,> 128 µg/mL
same,MIC,E. coli; Escherichia coli,> 128 µg/mL
"O=C(c1ccccc1O)c1[nH]c(Cl)c(Cl)c1-n1c(C(=O)c2ccccc2O)cc(Cl)c1Cl (racemic) [Compound 1, marinopyrrole A, reference compound]",higher potency than vancomycin (fold),[4]; against moderately resistant VRE (Table 1),128-256 fold
O=C(O)CS(=O)(=O)c1ccc(C(=O)c2[nH]c(Cl)c(Cl)c2-n2c(C(=O)c3ccc(S(=O)(=O)CC(=O)O)cc3O)cc(Cl)c2Cl)c(O)c1 [Compound 32],MIC,[1]; [11],> 64 µg/mL
same,MIC,[2]; [11],> 64 µg/mL
same,MIC,[3]; [12],8 to 64 µg/mL
same,MIC,[4]; [13],64 µg/mL
same,MIC,[5]; [14],> 64 µg/mL
same,MIC,[6]; [15],> 64 µg/mL
CCOC(=O)CS(=O)(=O)c1ccc(C(=O)c2[nH]c(Cl)c(Cl)c2-n2c(C(=O)c3ccc(S(=O)(=O)CC(=O)OCC)cc3O)cc(Cl)c2Cl)c(O)c1 [Compound 28],MIC,"[1]; Table 2, data from 8 isolates",>64 µg/mL
same,MIC,"[2]; Table 2, data from 8 isolates",>64 µg/mL
same,MIC,"[3]; Table 2, data from 4 isolates",8 µg/mL
same,MIC,"[4]; Table 2, WHO-3",4 µg/mL
same,MIC,"[5]; Table 2, WHO-25",32 µg/mL
same,MIC,"[6]; Table 2, WHO-31",>64 µg/mL
"O=C(c1ccc(SCc2ccccc2)cc1O)c1[nH]c(Cl)c(Cl)c1-n1c(C(=O)c2ccc(SCc3ccccc3)cc2O)cc(Cl)c1Cl [Compound 26, (4,4′,5,5′-Tetrachloro-1′H-1,3′-bipyrrole-2,2′-diyl)bis(((2-hydroxy-4-benzylthio)phenyl)methanone)]",MIC,"[1]; Table 2, data from 8 isolates",>64 µg/mL
same,MIC,"[2]; Table 2, data from 8 isolates",>64 µg/mL
same,MIC,"[3]; Table 2, data from 4 isolates",8 to 32 µg/mL
same,MIC,"[4]; Table 2, WHO-3",16 µg/mL
same,MIC,"[5]; Table 2, WHO-25",>64 µg/mL
same,MIC,"[6]; Table 2, WHO-31",>64 µg/mL
O=C(O)CSc1ccc(C(=O)c2[nH]c(Cl)c(Cl)c2-n2c(C(=O)c3ccc(SCC(=O)O)cc3O)cc(Cl)c2Cl)c(O)c1 [Compound 31],MIC,[1]; [11],> 64 µg/mL
same,MIC,[2]; [11],> 64 µg/mL
same,MIC,[3]; [12],32 to 64 µg/mL
same,MIC,[4]; [13],32 µg/mL
same,MIC,[5]; [14],> 64 µg/mL
same,MIC,[6]; [15],> 64 µg/mL
